Source: PubChem BioAssay AID248 (DTP/NCI, 2004)
Several values for one entry are separate records, joined by “and”; a condition that tells them apart may be missing. Identical values can stand only once. Toxic doses and inconclusive results are not listed. No stated cut-off is given here; in the data, active means T/C of 150% or more; inactive means T/C below 125%.

Tested on: L1210 leukemia ip in BDF1 mice, survival T/C
Experiment: NCI In Vivo Anticancer Drug Screen. Data for tumor model L1210 Leukemia (intraperitoneal) in B6D2F1 (BDF1) mice
Settings: endpoint: mean survival time, higher = longer survival
Outline: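 Survival endpoint. Drug-treated group vs vehicle group, expressed as T divided by C. Tumor passaged by transplantation.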

[1] = dose: 100.0 mg/kg/injection, schedule: Q04DX002 (ip), vehicle: Klucel (hydroxypropylcellulose) (HPC)
[2] = dose: 200.0 mg/kg/injection, schedule: Q04DX002 (ip), vehicle: Klucel (hydroxypropylcellulose) (HPC)
[3] = dose: 100.0 mg/kg/injection, schedule: Q01DX009 (ip), vehicle: Klucel (hydroxypropylcellulose) (HPC)
[4] = dose: 200.0 mg/kg/injection, schedule: Q01DX009 (ip), vehicle: Klucel (hydroxypropylcellulose) (HPC)
[5] = dose: 100.0 mg/kg/injection, schedule: Q04DX003 (ip), vehicle: saline
[6] = dose: 200.0 mg/kg/injection, schedule: Q04DX003 (ip), vehicle: saline
[7] = dose: 400.0 mg/kg/injection, schedule: Q04DX003 (ip), vehicle: saline
[8] = dose: 100.0 mg/kg/injection, schedule: Q04DX003 (ip), vehicle: other
[9] = dose: 200.0 mg/kg/injection, schedule: Q04DX003 (ip), vehicle: other
[10] = dose: 400.0 mg/kg/injection, schedule: Q04DX003 (ip), vehicle: other
[11] = dose: 50.0 mg/kg/injection, schedule: Q01DX001 (ip), vehicle: saline
[12] = dose: 100.0 mg/kg/injection, schedule: Q01DX001 (ip), vehicle: saline
[13] = dose: 200.0 mg/kg/injection, schedule: Q01DX001 (ip), vehicle: saline
[14] = dose: 100.0 mg/kg/injection, schedule: Q04DX003 (ip), vehicle: saline sonified
[15] = dose: 200.0 mg/kg/injection, schedule: Q04DX003 (ip), vehicle: saline sonified
[16] = dose: 400.0 mg/kg/injection, schedule: Q01DX009 (ip), vehicle: Klucel (hydroxypropylcellulose) (HPC)
[17] = dose: 400.0 mg/kg/injection, schedule: Q01DX001 (ip), vehicle: saline
[18] = dose: 100.0 mg/kg/injection, schedule: Q04DX003 (ip), vehicle: Klucel (hydroxypropylcellulose) (HPC)
[19] = dose: 200.0 mg/kg/injection, schedule: Q04DX003 (ip), vehicle: Klucel (hydroxypropylcellulose) (HPC)
[20] = dose: 400.0 mg/kg/injection, schedule: Q04DX003 (ip), vehicle: Klucel (hydroxypropylcellulose) (HPC)

Measured: T/C

O=C1c2ccccc2S(=O)N1OCc1ccccc1 (configuration not stated)
inactive: [1] 88 % of control | [2] 100 % of control

O=C(O)Cc1c(O)ccc2ccccc12
inactive: dose: 100.0 mg/kg/injection, schedule: Q01DX009 (ip), vehicle: gum acacia 92 % of control | dose: 100.0 mg/kg/injection, schedule: Q04DX003 (ip), vehicle: gum acacia 97 % of control | dose: 200.0 mg/kg/injection, schedule: Q01DX009 (ip), vehicle: gum acacia 90 % of control | dose: 200.0 mg/kg/injection, schedule: Q04DX003 (ip), vehicle: gum acacia 92 % of control | dose: 400.0 mg/kg/injection, schedule: Q01DX009 (ip), vehicle: gum acacia 98 % of control | dose: 400.0 mg/kg/injection, schedule: Q04DX003 (ip), vehicle: gum acacia 90 % of control

CCOC(=O)CC(C(=O)OCC)c1nc2ccccc2[nH]c1=O (configuration not stated)
inactive: dose: 50.0 mg/kg/injection, schedule: Q01DX009 (ip), vehicle: Klucel (hydroxypropylcellulose) (HPC) 93 % of control and 113 % of control | [3] 101 % of control and 90 % of control | [4] 93 % of control and 103 % of control

CCCCNC(N)=O
inactive: dose: 100.0 mg/kg/injection, schedule: Q04DX002 (ip), vehicle: saline 101 % of control | dose: 200.0 mg/kg/injection, schedule: Q04DX002 (ip), vehicle: saline 96 % of control | dose: 400.0 mg/kg/injection, schedule: Q04DX002 (ip), vehicle: saline 92 % of control

CCC1=C/C(=C\c2ccc3c(c2)OCO3)C(=O)S1
inactive: dose: 200.0 mg/kg/injection, schedule: Q04DX002 (ip), vehicle: saline with Tween-80 89 % of control | dose: 400.0 mg/kg/injection, schedule: Q04DX002 (ip), vehicle: saline with Tween-80 89 % of control

CCOC(=O)N=C=S
inactive: [5] 95 % of control | [6] 103 % of control | [7] 95 % of control

CC(=C(C#N)C#N)c1ccccc1
inactive: dose: 12.5 mg/kg/injection, schedule: Q04DX003 (ip), vehicle: saline with Tween-80 95 % of control | dose: 25.0 mg/kg/injection, schedule: Q04DX003 (ip), vehicle: saline with Tween-80 94 % of control | dose: 50.0 mg/kg/injection, schedule: Q04DX003 (ip), vehicle: saline with Tween-80 89 % of control

CCCCNC(=O)N(C)Cc1ccccc1
inactive: [1] 105 % of control | [2] 97 % of control | dose: 400.0 mg/kg/injection, schedule: Q04DX002 (ip), vehicle: Klucel (hydroxypropylcellulose) (HPC) 112 % of control

O=C(Nc1ccccc1Cl)c1cccnc1
inactive: [8] 96 % of control | [9] 97 % of control | [10] 94 % of control

O=C(Nc1ccc(Br)cc1)c1nc(Br)[nH]c1Br
inactive: dose: 6.25 mg/kg/injection, schedule: Q01DX009 (ip), vehicle: saline with Tween-80 94 % of control | dose: 12.5 mg/kg/injection, schedule: Q01DX009 (ip), vehicle: saline with Tween-80 89 % of control | dose: 25.0 mg/kg/injection, schedule: Q01DX009 (ip), vehicle: saline with Tween-80 89 % of control

O=C(CI)c1ccc[nH]1
inactive: [11] 100 % of control | [12] 100 % of control | [13] 103 % of control

CC1(C)N=C(N)N=C(N)N1c1cccc(CCCCc2c(Cl)cccc2Cl)c1
inactive: dose: 25.0 mg/kg/injection, schedule: Q01DX001 (ip), vehicle: saline 105 % of control | [11] 86 % of control | [12] 95 % of control

CC[N+](C)(C)CCOC(=O)C1C2CC3OC(=O)C1C3C2 (configuration not stated)
inactive: [5] 97 % of control | [6] 101 % of control

C#CC(C)OCC1CO1 (configuration not stated)
inactive: dose: 50.0 mg/kg/injection, schedule: Q01DX009 (ip), vehicle: saline 86 % of control | dose: 100.0 mg/kg/injection, schedule: Q01DX009 (ip), vehicle: saline 86 % of control | [14] 117 % of control | dose: 200.0 mg/kg/injection, schedule: Q01DX009 (ip), vehicle: saline 93 % of control | [15] 93 % of control

COc1ccc(-c2sc(/N=C/c3cccs3)c(C#N)c2C)cc1OC
inactive: [3] 94 % of control | [4] 95 % of control | [16] 97 % of control

CN(C)c1ccc(/C=N/NC(=O)c2ccccc2NC(=O)C2CC2)cc1
inactive: [3] 93 % of control | [4] 104 % of control | [16] 90 % of control

Brc1cc(Br)c(N=Nc2c(Br)cc(Br)cc2Br)c(Br)c1
inactive: [11] 95 % of control | [12] 95 % of control | [13] 95 % of control | [17] 101 % of control

O=C(OCCBr)c1ccc(Cl)cc1
inactive: [5] 101 % of control | [6] 97 % of control | [7] 103 % of control

O=C1C=C(O)C(c2ccccc2)=CC1=O
inactive: dose: 100.0 mg/kg/injection, schedule: Q01DX001 (ip), vehicle: water 104 % of control | dose: 200.0 mg/kg/injection, schedule: Q01DX001 (ip), vehicle: water 119 % of control

Cc1c2cnccc2c(C)c2c1[nH]c1ccccc12
inactive: dose: 25.0 mg/kg/injection, schedule: Q01DX Z (ip), vehicle: saline 104 % of control | dose: 50.0 mg/kg/injection, schedule: Q01DX Z (ip), vehicle: saline 102 % of control | dose: 75.0 mg/kg/injection, schedule: Q01DX Z (ip), vehicle: saline 100 % of control | [12] 97 % of control | dose: 100.0 mg/kg/injection, schedule: Q01DX Z (ip), vehicle: saline 102 % of control and 92 % of control | dose: 150.0 mg/kg/injection, schedule: Q01DX Z (ip), vehicle: saline 90 % of control | [13] 100 % of control | dose: 225.0 mg/kg/injection, schedule: Q01DX Z (ip), vehicle: saline 93 % of control | dose: 335.0 mg/kg/injection, schedule: Q01DX Z (ip), vehicle: saline 97 % of control and 98 % of control | [17] 100 % of control | dose: 500.0 mg/kg/injection, schedule: Q01DX Z (ip), vehicle: saline 113 % of control

Cc1ccc(C)c(NC(=O)N2CCCCC2C)c1 (configuration not stated)
inactive: [3] 101 % of control | [18] 98 % of control | [4] 101 % of control | [19] 102 % of control | [16] 97 % of control | [20] 100 % of control

O=c1[nH]c2cc(Cl)c(Cl)cc2o1
inactive: dose: 19.0 mg/kg/injection, schedule: Q01DX Z (ip), vehicle: carboxymethylcellulose (CMC) 95 % of control | dose: 37.5 mg/kg/injection, schedule: Q01DX Z (ip), vehicle: carboxymethylcellulose (CMC) 95 % of control | dose: 75.0 mg/kg/injection, schedule: Q01DX Z (ip), vehicle: carboxymethylcellulose (CMC) 96 % of control | [3] 93 % of control | [8] 102 % of control | [4] 93 % of control | [9] 95 % of control | [10] 97 % of control

CCSP(=S)(SCC)SCC
inactive: dose: 75.0 mg/kg/injection, schedule: Q04DX003 (ip), vehicle: Klucel (hydroxypropylcellulose) (HPC) 94 % of control | dose: 150.0 mg/kg/injection, schedule: Q04DX003 (ip), vehicle: Klucel (hydroxypropylcellulose) (HPC) 92 % of control | dose: 300.0 mg/kg/injection, schedule: Q04DX003 (ip), vehicle: Klucel (hydroxypropylcellulose) (HPC) 120 % of control

NC(=O)N/N=C1\CCCC(OC(=O)c2ccccc2)CC1 (configuration not stated)
inactive: [3] 97 % of control | [18] 97 % of control | [4] 97 % of control | [19] 102 % of control | [16] 94 % of control | [20] 96 % of control

O=C(c1cccnc1)C1Cc2ccccc2C1=O (configuration not stated)
inactive: [14] 100 % of control | [15] 96 % of control | dose: 400.0 mg/kg/injection, schedule: Q04DX003 (ip), vehicle: saline sonified 91 % of control

OC(c1nc2ccc(Cl)cc2[nH]1)C(O)C(O)C(O)c1nc2ccc(Cl)cc2[nH]1 (configuration not stated)
inactive: dose: 100.0 mg/kg/injection, schedule: Q01DX001 (ip), vehicle: carboxymethylcellulose (CMC) 90 % of control | dose: 200.0 mg/kg/injection, schedule: Q01DX001 (ip), vehicle: carboxymethylcellulose (CMC) 101 % of control | dose: 400.0 mg/kg/injection, schedule: Q01DX001 (ip), vehicle: carboxymethylcellulose (CMC) 103 % of control

O=C1C=CC(=O)c2[nH]c(=O)ccc21
inactive: dose: 5.0 mg/kg/injection, schedule: Q01DX001 (ip), vehicle: saline 104 % of control | dose: 10.0 mg/kg/injection, schedule: Q01DX001 (ip), vehicle: saline 107 % of control

CC1=C[P+](C)(Cc2ccccc2)CC1 (configuration not stated)
inactive: [12] 100 % of control
